Counter-ions that a name gives are not always drawn.
test system: HiBiT-tagged HTT protein in K562 cells; assay: HiBiT protein abundance assay, HTT; format: cell-based, human; conditions: HiBiT-modified K562 cells, 24 hours, luminescence
Experimental: Compounds described herein were used to screen for effects on quantitative protein abundance using a HiBit assay system (Promega). Quantitative protein abundance was determined by measuring the protein levels of HiBit-tagged protein targets expressed in cell culture via luminescence using the Nano-Glo HiBiT Lytic Detection System, which uses a split complementation assay format to reconstitute NanoBiT enzyme to generate a luminescent signal. A protein abundance assay was developed such that endogenous protein targets could be modified with the HiBiT peptide tag and their abundance could be assessed after compound treatment. Briefly, K562 cell lines containing a HiBiT-modification were treated with various compounds described herein (e.g., compounds of Formulas (I), (II), or (III)). After treatment for 24 hours, the protein abundance of a specific target was determined by measuring luminescence.
• Promega Nano-Glo HiBiT Lytic Detection System (cat #N3030) • Corning 384-well TC-treated microplates (cat #3570) • Synthego Engineered Cells Knock-In Clones
Cells were maintained in IMDM with 10% FBS. Before the assay, cells were diluted with […] growth media (IMDM+1% FBS media) and were seeded in a 384-well plate at a density of 10000 cells/well (for each cell line listed in Table 5). Each compound was prepared as a 10-point 3-fold serial dilution in DMSO with the top dose at a final concentration of 10 μM in the well. Unmodified K562 cells were added at the previously specified density with DMSO to serve as an assay baseline and positive control (PC) and DMSO only with the respective modified cell lines was added to the negative control (NC) columns. Final DMSO concentration was kept at or below 0.25%. Treated cell plates were placed in an incubator at 37° C. with 5% CO2 for 24 hours. After 24 hours, 25 μL of Complete HiBit Lytic reagent was added to each well at room temperature (e.g. one plate requiring 10 mL Lytic Buffer, 100 μL LgBiT Protein, 200 μL Lytic Substrate), shaken for 5 minutes at 600 RPM, then left to sit for 10 minutes for signal to stabilize before reading on a Spark Cyto plate reader (Tecan) with a 500 ms measurement time.
To determine compound effects on protein abundance of each target in Table 5, the percent response for each respective cell line was calculated at each compound concentration as follows:
For the normalized response at each concentration, a four-parameter logistical regression was fit to the data and the response was interpolated at the 50% value to determine a concentration for protein abundance at 50% (IC50) the untreated control.

Row | Compound | IC50 [nM]
1 | Cc1cn2cc(-n3cnc4nc(N5CCNCC5)sc4c3=O)cc(C(F)(F)F)c2n1 [Compound 229, 6-(2-methyl-8-(trifluoromethyl)imidazo[1,2-a]pyridin-6-yl)-2-(piperazin-1-yl)thiazolo[4,5-d]pyrimidin-7(6H)-one] | > 10000
2 | Cc1cc(-c2cc(=O)n3cc(N4CCN(C)CC4)sc3n2)cc2cn(C)nc12 [Compound 109, 7-(2,7-dimethyl-2H-indazol-5-yl)-2-(4-methylpiperazin-1-yl)-5H-thiazolo[3,2-a]pyrimidin-5-one] | > 10000
3 | Cc1cn2cc(-c3cc4ncn(C5CCNCC5)c(=O)c4s3)cc(F)c2n1 [Compound 235, 6-(8-fluoro-2-methylimidazo[1,2-a]pyridin-6-yl)-3-(piperidin-4-yl)thieno[3,2-d]pyrimidin-4(3H)-one] | 100 to 1000
4 | Cc1cn2nc(-c3nc4ncn(C5CCNCC5)c(=O)c4s3)cc(C)c2n1 [Compound 231, 2-(2,8-dimethylimidazo[1,2-b]pyridazin-6-yl)-6-(piperidin-4-yl)thiazolo[4,5-d]pyrimidin-7(6H)-one] | 100 to 1000
5 | Cc1cn2cc(-c3cn4c(=O)cc(N5CCNC6(CC6)C5)nc4s3)cc(F)c2n1 [Compound 208, 2-(8-fluoro-2-methylimidazo[1,2-a]pyridin-6-yl)-7-(4,7-diazaspiro[2.5]octan-7-yl)-5H-thiazolo[3,2-a]pyrimidin-5-one] | 1000 to 10000
6 | Cc1nc(-c2nc3ncn(C4CCNCC4)c(=O)c3s2)cc2cn(C)nc12 [Compound 251, 2-(2,7-dimethyl-2H-pyrazolo[3,4-c]pyridin-5-yl)-6-(piperidin-4-yl)thiazolo[4,5-d]pyrimidin-7(6H)-one] | 1000 to 10000
7 | COc1cc(-c2cc3ncn(C4CCNCC4)c(=O)c3s2)cnn1 [Compound 260] | 1000 to 10000
8 | Cc1cn2cc(-c3cc(=O)n4nc(N5CCN(C)CC5)sc4n3)cc(F)c2n1 [Compound 159, 7-(8-fluoro-2-methylimidazo[1,2-a]pyridin-6-yl)-2-(4-methylpiperazin-1-yl)-5H-[1,3,4]thiadiazolo[3,2-a]pyrimidin-5-one] | 1000 to 10000
9 | Cc1cn2cc(-c3nc4sc(C5CCNCC5)cc4c(=O)[nH]3)cc(F)c2n1 [Compound 250, 2-(8-fluoro-2-methylimidazo[1,2-a]pyridin-6-yl)-6-(piperidin-4-yl)thieno[2,3-d]pyrimidin-4(3H)-one] | 100 to 1000
10 | Cc1cn2cc(-c3cc4ncn(C5CCNCC5)c(=O)c4s3)cc(C)c2n1 [Compound 261] | 100 to 1000
11 | Cc1cc(-c2cc(=O)n3nc(N4CCN(C)CC4)sc3n2)cc2cn(C)nc12 [Compound 157, 7-(2,7-dimethyl-2H-indazol-5-yl)-2-(4-methylpiperazin-1-yl)-5H-[1,3,4]thiadiazolo[3,2-a]pyrimidin-5-one] | > 10000
12 | Cc1cn2cc(-c3nc4sc(C5CCN(C)CC5)cc4c(=O)[nH]3)cc(F)c2n1 [Compound 256, 2-(8-fluoro-2-methylimidazo[1,2-a]pyridin-6-yl)-6-(1-methylpiperidin-4-yl)thieno[2,3-d]pyrimidin-4(3H)-one] | > 10000
13 | Cc1cn2nc(-c3cc(=O)n4cc(N5CCNC6(CC6)C5)sc4n3)cc(C)c2n1 [Compound 211, 7-(2,8-dimethylimidazo[1,2-b]pyridazin-6-yl)-2-(4,7-diazaspiro[2.5]octan-7-yl)-5H-thiazolo[3,2-a]pyrimidin-5-one] | 1000 to 10000
14 | Cn1cc2cc(-n3cnc4nc(N5CCNCC5)sc4c3=O)ccc2n1 [Compound 225, 6-(2-methyl-2H-indazol-5-yl)-2-(piperazin-1-yl)thiazolo[4,5-d]pyrimidin-7(6H)-one] | > 10000
15 | Cc1cn2nc(-c3cc4ncn(C5CCNCC5)c(=O)c4s3)cc(C)c2n1 [Compound 238, 6-(2,8-dimethylimidazo[1,2-b]pyridazin-6-yl)-3-(piperidin-4-yl)thieno[3,2-d]pyrimidin-4(3H)-one] | 100 to 1000
16 | Cc1cn2cc(-c3cn4c(=O)cc(N5CCNCC5)nc4s3)cc(F)c2n1 [Compound 213, 2-(8-fluoro-2-methylimidazo[1,2-a]pyridin-6-yl)-7-(piperazin-1-yl)-5H-thiazolo[3,2-a]pyrimidin-5-one] | > 10000
17 | Cc1cn2cc(-c3cc(=O)n4cc(N5CCNC6(CC6)C5)sc4n3)cc(F)c2n1 [Compound 207, 7-(8-fluoro-2-methylimidazo[1,2-a]pyridin-6-yl)-2-(4,7-diazaspiro[2.5]octan-7-yl)-5H-thiazolo[3,2-a]pyrimidin-5-one] | > 10000
18 | Cc1cn2cc(-c3nn4c(=O)cc(N5CCN(C)CC5)nc4s3)cc(F)c2n1 [Compound 217, 2-(8-fluoro-2-methylimidazo[1,2-a]pyridin-6-yl)-7-(4-methylpiperazin-1-yl)-5H-[1,3,4]thiadiazolo[3,2-a]pyrimidin-5-one] | 1000 to 10000
19 | Cc1cn2nc(-c3cn4c(=O)cc(N5CCNC6(CC6)C5)nc4s3)cc(C)c2n1 [Compound 212, 2-(2,8-dimethylimidazo[1,2-b]pyridazin-6-yl)-7-(4,7-diazaspiro[2.5]octan-7-yl)-5H-thiazolo[3,2-a]pyrimidin-5-one] | 1000 to 10000
20 | Cc1cn2nc(-c3cc4ncn(C5CCNCC5)c(=O)c4s3)cc2c(C)n1 [Compound 262] | 100 to 1000
21 | Cc1cn2cc(-n3cnc4nc(N5CCNCC5)sc4c3=O)cc(F)c2n1 [Compound 226, 6-(8-fluoro-2-methylimidazo[1,2-a]pyridin-6-yl)-2-(piperazin-1-yl)thiazolo[4,5-d]pyrimidin-7(6H)-one] | 100 to 1000
22 | Cn1cc2cc(-c3nc4ncn(C5CCNCC5)c(=O)c4s3)c(O)cc2n1 [Compound 253, 2-(6-hydroxy-2-methyl-2H-indazol-5-yl)-6-(piperidin-4-yl)thiazolo[4,5-d]pyrimidin-7(6H)-one, hydrochloride] | 1000 to 10000

The remaining lines, values ahead:

Row | IC50 [nM] | Compound
23 | 1000 to 10000 | Cc1nc(-c2nc3cnn(C4CCNCC4)c(=O)c3s2)cc2cn(C)nc12 [Compound 811]
24 | 100 to 1000 | Cc1cn2cc(-c3cc4ncn(C5=CCNCC5)c(=O)c4s3)cc(F)c2n1 [Compound 276, 6-{8-fluoro-2-methylimidazo[1,2-a]pyridin-6-yl}-3-(1,2,3,6-tetrahydropyridin-4-yl)thieno[3,2-d]pyrimidin-4-one]
25 | > 10000 | Cc1cn2cc(-c3cc4ncn(C5CCNCC5(F)F)c(=O)c4s3)cc(F)c2n1 (centres unmarked) [Compound 274, 3-(3,3-difluoropiperidin-4-yl)-6-{8-fluoro-2-methylimidazo[1,2-a]pyridin-6-yl}thieno[3,2-d]pyrimidin-4-one]
26 | 100 to 1000 | Cc1cn2cc(-c3cc4ncn(C5CCN(C)CC5)c(=O)c4s3)cc(F)c2n1 [Compound 265, 6-{8-fluoro-2-methylimidazo[1,2-a]pyridin-6-yl}-3-(1-methylpiperidin-4-yl)thieno[3,2-d]pyrimidin-4-one]
27 | 100 to 1000 | Cc1cn2nc(-c3nc4cnn(C5CCNCC5)c(=O)c4s3)cc(C)c2n1 [Compound 810]
28 | 1000 to 10000 | Cc1cn2nc(-c3cc4ccn(C5CCN(C)CC5)c(=O)c4s3)cc(C)c2n1 [Compound 809]
29 | 100 to 1000 | Cc1cn2cc(-c3nc4cnn(C5CCNCC5)c(=O)c4s3)nc(C)c2n1 [Compound 812, 2-(2,8-dimethylimidazo[1,2-a]pyrazin-6-yl)-6-(piperidin-4-yl)thiazolo[4,5-d]pyridazin-7(6H)-one]
30 | 100 to 1000 | Cc1cn2cc(-c3cc4ccn(C5CCNCC5)c(=O)c4s3)cc(F)c2n1 [Compound 804, 2-(8-fluoro-2-methylimidazo[1,2-a]pyridin-6-yl)-6-(piperidin-4-yl)thieno[2,3-c]pyridin-7(6H)-one]
31 | > 10000 | Cc1cn2cc(-n3ccc4cc(C5CCNCC5)sc4c3=O)cc(F)c2n1 [Compound 801, 6-[8-fluoro-2-methylimidazo[1,2-a]pyridin-6-yl]-2-(piperidin-4-yl)thieno[2,3-c]pyridin-7-one]
32 | 100 to 1000 | Cc1cn2cc(-c3cc4ncn(N5CCNCC5)c(=O)c4s3)cc(F)c2n1 [Compound 269, 6-{8-fluoro-2-methylimidazo[1,2-a]pyridin-6-yl}-3-(piperazin-1-yl)thieno[3,2-d]pyrimidin-4-one]
33 | 1000 to 10000 | Cc1cn2cc(-c3cc4ncn(C5CCNCC5)c(=O)c4s3)ncc2n1 [Compound 264]
34 | 100 to 1000 | Cc1cc(-c2cc3ccn(C4CCNCC4)c(=O)c3s2)cc2cn(C)nc12 [Compound 805, 2-(2,7-dimethyl-2H-indazol-5-yl)-6-(piperidin-4-yl)thieno[2,3-c]pyridin-7(6H)-one]
35 | 100 to 1000 | Cc1cn2cc(-c3cc4ncn([C@H]5CCN[C@H](C)C5)c(=O)c4s3)cc(F)c2n1 (relative stereo) [Compound 277, 6-{8-fluoro-2-methylimidazo[1,2-a]pyridin-6-yl}-3-[(trans)-2-methylpiperidin-4-yl]thieno[3,2-d]pyrimidin-4-one]

Source: patent publication US20240366612A1, “COMPOUNDS AND METHODS FOR MODULATING NUCLEIC ACID SPLICING” (REMIX THERAPEUTICS INC., priority 2021, published 2024)
